The experiment concerns the target human Autotaxin protein (Homo sapiens, UniProt Q13822). Briefly: Evaluation of the inhibitory activity against human Autotaxin protein (18:1 LysoPC substrate, choline assay kit, absorbance at 570 nm). Type of experiment: biochemical. The note with it: at 500nM compound, 2 hours at 37 °C, read-out: Inhibition rate (%, at 500nM). On the procedure: Solutions of each synthesized compound (80 uM, 100% dimethyl sulfoxide) were sequentially diluted 5-fold with dimethyl sulfoxide to prepare 6 concentrations. Each concentration of the compound was diluted 2-fold with 1x test buffer (50 mM Tris-Cl (pH 8.0), 5 mM KCl, 1 mM CaCl2, 1 mM MgCl2, 140 mM NaCl, deionized water, 1 mg/mL BSA), and 1 uL (1.25% dimethylsulfoxide) of the diluted mixture was dispensed into each well of a 96-well clear round-bottom plate. 9 uL of 1x test buffer was added, and 20 uL of 240 nM human autotaxin protein (buffer: 50 mM Tris-HCl, pH 8.0, with 150 mM sodium chloride and 20% glycerol) was added. 10 uL of sonicated 360 uM 18:1 LysoPC (diluted with 1x assay buffer) was added. The reaction was performed for 2 hours in a shaking incubator at 37 °C, and a secondary reaction mixture (choline assay kit, KA1662) (65 uL of 1x assay buffer: 1 uL of choline oxidase: 1 uL of dye probe) was prepared. 60 uL of the secondary reaction mixture was added to the plate where the reaction was performed, and incubated for 30 minutes in a shaker. The absorbance value was measured at a wavelength of 570 nm using a SpectraMax iD3 microplate reader. The percentage inhibition activity value (% inhibition) was calculated by the formula: (1 - absorbance value test group / absorbance value control group) X 100.

The source of these data is patent publication EP4692083A1, “NOVEL AZABICYCLE DERIVATIVES AND PHARMACEUTICAL COMPOSITION FOR INHIBITING AUTOTAXIN, COMPRISING SAME” (Nextgen Bioscience Co., Ltd., priority 2023, dated 2024).

By inhibition is commonly meant the share of the control response that was lost under treatment.

As for `c1ccc(CNc2ncc(-c3nnc(N4C[C@@H]5[C@H](C4)[C@H]5c4cnn[nH]4)o3)cn2)cc1` [Example 1, 5-(5-((1R,5S,6r)-6-(1H-1,2,3-Triazol-5-yl)-3-azabicyclo[3.1.0]hexan-3-yl)-1,3,4-oxadiazol-2-yl)-N-benzylpyrimidin-2-amine], the inhibition at 0.5 µM turned out to be 63.6%.

Take `Clc1cccc(CNc2ncc(-c3nnc(N4C[C@@H]5[C@H](C4)[C@H]5c4cnn[nH]4)o3)cn2)c1` [Example 2, 5-(5-((1R,5S,6r)-6-(1H-1,2,3-Triazol-5-yl)-3-azabicyclo[3.1.0]hexan-3-yl)-1,3,4-oxadiazol-2-yl)-N-(3-chlorobenzyl)pyrimidin-2-amine]: the inhibition at 0.5 µM was 88.5%. To `Clc1ccc(CNc2ncc(-c3nnc(N4C[C@@H]5[C@H](C4)[C@H]5c4cnn[nH]4)o3)cn2)cc1` [Example 3, 5-(5-((1R,5S,6r)-6-(1H-1,2,3-Triazol-5-yl)-3-azabicyclo[3.1.0]hexan-3-yl)-1,3,4-oxadiazol-2-yl)-N-(4-chlorobenzyl)pyrimidin-2-amine] belongs 73.1%; to `Fc1ccc(CNc2ncc(-c3nnc(N4C[C@@H]5[C@H](C4)[C@H]5c4cnn[nH]4)o3)cn2)cc1F` [Example 4, 5-(5-((1R,5S,6r)-6-(1H-1,2,3-Triazol-5-yl)-3-azabicyclo[3.1.0]hexan-3-yl)-1,3,4-oxadiazol-2-yl)-N-(3,4-difluorobenzyl)pyrimidin-2-amine], 81.5%; to `Fc1cc(F)cc(CNc2ncc(-c3nnc(N4C[C@@H]5[C@H](C4)[C@H]5c4cnn[nH]4)o3)cn2)c1` [Example 5, 5-(5-((1R,5S,6r)-6-(1H-1,2,3-Triazol-5-yl)-3-azabicyclo[3.1.0]hexan-3-yl)-1,3,4-oxadiazol-2-yl)-N-(3,5-difluorobenzyl)pyrimidin-2-amine], 86.4%. The result for `Clc1ccc(CNc2ncc(-c3nnc(N4C[C@@H]5[C@H](C4)[C@H]5c4cnn[nH]4)o3)cn2)cc1Cl` [Example 6, 5-(5-((1R,5S,6r)-6-(1H-1,2,3-Triazol-5-yl)-3-azabicyclo[3.1.0]hexan-3-yl)-1,3,4-oxadiazol-2-yl)-N-(3,4-dichlorobenzyl)pyrimidin-2-amine] reads 68.9%.

For `Clc1cc(Cl)cc(CNc2ncc(-c3nnc(N4C[C@@H]5[C@H](C4)[C@H]5c4cnn[nH]4)o3)cn2)c1` [Example 7, 5-(5-((1R,5S,6r)-6-(1H-1,2,3-Triazol-5-yl)-3-azabicyclo[3.1.0]hexan-3-yl)-1,3,4-oxadiazol-2-yl)-N-(3,5-dichlorobenzyl)pyrimidin-2-amine], the inhibition at 0.5 µM turned out to be 92%. The result for `Brc1cc(Br)cc(CNc2ncc(-c3nnc(N4C[C@@H]5[C@H](C4)[C@H]5c4cnn[nH]4)o3)cn2)c1` [Example 8, 5-(5-((1R,5S,6r)-6-(1H-1,2,3-Triazol-5-yl)-3-azabicyclo[3.1.0]hexan-3-yl)-1,3,4-oxadiazol-2-yl)-N-(3,5-dibromobenzyl)pyrimidin-2-amine] reads 97.3%.

Consider `c1cc2c(cc1CNc1ncc(-c3nnc(N4C[C@@H]5[C@H](C4)[C@H]5c4cnn[nH]4)o3)cn1)OCO2` [Example 9, 5-(5-((1R,5S,6r)-6-(1H-1,2,3-Triazol-5-yl)-3-azabicyclo[3.1.0]hexan-3-yl)-1,3,4-oxadiazol-2-yl)-N-(benzo[d][1,3]dioxol-5-ylmethyl)pyrimidin-2-amine], for which the inhibition at 0.5 µM amounted to 40.6%. The result for `FC(F)(F)c1cc(CNc2ncc(-c3nnc(N4C[C@@H]5[C@H](C4)[C@H]5c4cnn[nH]4)o3)cn2)cc(C(F)(F)F)c1` [Example 10, 5-(5-((1R,5S,6r)-6-(1H-1,2,3-Triazol-5-yl)-3-azabicyclo[3.1.0]hexan-3-yl)-1,3,4-oxadiazol-2-yl)-N-(3,5-bis(trifluoromethyl)benzyl)pyrimidin-2-amine] reads 91.6%. The result for `c1ccc(CCNc2ncc(-c3nnc(N4C[C@@H]5[C@H](C4)[C@H]5c4cnn[nH]4)o3)cn2)cc1` [Example 11, 5-(5-((1R,5S,6r)-6-(1H-1,2,3-Triazol-5-yl)-3-azabicyclo[3.1.0]hexan-3-yl)-1,3,4-oxadiazol-2-yl)-N-phenethylpyrimidin-2-amine] reads 85.3%; that for `Fc1cccc(CCNc2ncc(-c3nnc(N4C[C@@H]5[C@H](C4)[C@H]5c4cnn[nH]4)o3)cn2)c1` [Example 12, 5-(5-((1R,5S,6r)-6-(1H-1,2,3-Triazol-5-yl)-3-azabicyclo[3.1.0]hexan-3-yl)-1,3,4-oxadiazol-2-yl)-N-(3-fluorophenethyl)pyrimidin-2-amine], 82.9%. Consider `Fc1ccc(CCNc2ncc(-c3nnc(N4C[C@@H]5[C@H](C4)[C@H]5c4cnn[nH]4)o3)cn2)cc1` [Example 13, 5-(5-((1R,5S,6r)-6-(1H-1,2,3-Triazol-5-yl)-3-azabicyclo[3.1.0]hexan-3-yl)-1,3,4-oxadiazol-2-yl)-N-(4-fluorophenethyl)pyrimidin-2-amine], for which the inhibition at 0.5 µM was 86%. To `Clc1cccc(CCNc2ncc(-c3nnc(N4C[C@@H]5[C@H](C4)[C@H]5c4cnn[nH]4)o3)cn2)c1` [Example 14, 5-(5-((1R,5S,6r)-6-(1H-1,2,3-Triazol-5-yl)-3-azabicyclo[3.1.0]hexan-3-yl)-1,3,4-oxadiazol-2-yl)-N-(3-chlorophenethyl)pyrimidin-2-amine] belongs 85.3%; to `Clc1ccc(CCNc2ncc(-c3nnc(N4C[C@@H]5[C@H](C4)[C@H]5c4cnn[nH]4)o3)cn2)cc1` [Example 15, 5-(5-((1R,5S,6r)-6-(1H-1,2,3-Triazol-5-yl)-3-azabicyclo[3.1.0]hexan-3-yl)-1,3,4-oxadiazol-2-yl)-N-(4-chlorophenethyl)pyrimidin-2-amine], 94.5%.

Turning to `c1ccc2c(c1)CC(Nc1ncc(-c3nnc(N4C[C@@H]5[C@H](C4)[C@H]5c4cnn[nH]4)o3)cn1)C2` [Example 16, 5-(5-((1R,5S,6r)-6-(1H-1,2,3-Triazol-5-yl)-3-azabicyclo[3.1.0]hexan-3-yl)-1,3,4-oxadiazol-2-yl)-N-(2,3-dihydro-1H-inden-2-yl)pyrimidin-2-amine], the inhibition at 0.5 µM came out at 98.6%.

On to `Fc1cc2c(cc1F)CC(Nc1ncc(-c3nnc(N4C[C@@H]5[C@H](C4)[C@H]5c4cnn[nH]4)o3)cn1)C2` [Example 17, 5-(5-((1R,5S,6r)-6-(1H-1,2,3-Triazol-5-yl)-3-azabicyclo[3.1.0]hexan-3-yl)-1,3,4-oxadiazol-2-yl)-N-(5,6-difluoro-2,3-dihydro-1H-inden-2-yl)pyrimidin-2-amine], for which the inhibition at 0.5 µM is 96.7%. For `Brc1ccc2c(c1)CC(Nc1ncc(-c3nnc(N4C[C@@H]5[C@H](C4)[C@H]5c4cnn[nH]4)o3)cn1)C2` (stereo partly drawn) [Example 18, 5-(5-((1R,5S,6r)-6-(1H-1,2,3-Triazol-5-yl)-3-azabicyclo[3.1.0]hexan-3-yl)-1,3,4-oxadiazol-2-yl)-N-(5-bromo-2,3-dihydro-1H-inden-2-yl)pyrimidin-2-amine], the inhibition at 0.5 µM stood at 87.6%. In the case of `O=C(CCc1cnc(NC2Cc3ccccc3C2)nc1)N1C[C@@H]2[C@H](C1)[C@H]2c1cnn[nH]1` [Example 19, 1-((1R,5S,6r)-6-(1H-1,2,3-Triazol-5-yl)-3-azabicyclo[3.1.0]hexan-3-yl)-3-(2-((2,3-dihydro-1H-inden-2-yl)amino)pyrimidin-5-yl)propan-1-one], the inhibition at 0.5 µM is 91.9%. To `FC(F)(F)c1ccc(CNc2ncc(-c3nnc(N4C[C@@H]5[C@H](C4)[C@H]5c4cnn[nH]4)o3)cn2)cc1` [Example 20, 5-(5-((1R,5S,6r)-6-(1H-1,2,3-Triazol-5-yl)-3-azabicyclo[3.1.0]hexan-3-yl)-1,3,4-oxadiazol-2-yl)-N-(4-(trifluoromethyl)benzyl)pyrimidin-2-amine] belongs 88.5%; to `FC(F)(F)c1cccc(CNc2ncc(-c3nnc(N4C[C@@H]5[C@H](C4)[C@H]5c4cnn[nH]4)o3)cn2)c1` [Example 21, 5-(5-((1R,5S,6r)-6-(1H-1,2,3-Triazol-5-yl)-3-azabicyclo[3.1.0]hexan-3-yl)-1,3,4-oxadiazol-2-yl)-N-(3-(trifluoromethyl)benzyl)pyrimidin-2-amine], 97.6%; to `FC(F)(F)c1ccccc1CNc1ncc(-c2nnc(N3C[C@@H]4[C@H](C3)[C@H]4c3cnn[nH]3)o2)cn1` [Example 22, 5-(5-((1R,5S,6r)-6-(1H-1,2,3-Triazol-5-yl)-3-azabicyclo[3.1.0]hexan-3-yl)-1,3,4-oxadiazol-2-yl)-N-(2-(trifluoromethyl)benzyl)pyrimidin-2-amine], 98.4%. To `FC(F)c1ccc(CNc2ncc(-c3nnc(N4C[C@@H]5[C@H](C4)[C@H]5c4cnn[nH]4)o3)cn2)cc1` [Example 23, 5-(5-((1R,5S,6r)-6-(1H-1,2,3-Triazol-5-yl)-3-azabicyclo[3.1.0]hexan-3-yl)-1,3,4-oxadiazol-2-yl)-N-(4-(difluoromethyl)benzyl)pyrimidin-2-amine] belongs 82.2%. In the case of `N#Cc1ccc(CNc2ncc(-c3nnc(N4C[C@@H]5[C@H](C4)[C@H]5c4cnn[nH]4)o3)cn2)cc1` [Example 24, 4-(((5-(5-((1R,5S,6r)-6-(1H-1,2,3-Triazol-5-yl)-3-azabicyclo[3.1.0]hexan-3-yl)-1,3,4-oxadiazol-2-yl)pyrimidin-2-yl)amino)methyl)benzonitrile], the inhibition at 0.5 µM was 66.3%.
